Assay results published in ChEMBL document CHEMBL1649565, “Besifloxacin, a novel fluoroquinolone, has broad-spectrum in vitro activity against aerobic and anaerobic bacteria” (Antimicrob Agents Chemother, 2009).
Activity calls are given as the source filed them. No cut-off for these calls is given here.

Experiments:
[1] = test system: Enterococcus faecalis; experiment: Antibacterial activity against vancomycin- resistant Enterococcus faecalis by CLSI M100-S18 method; type: functional
[2] = test system: Enterococcus faecium; experiment: Antibacterial activity against vancomycin- resistant Enterococcus faecium by CLSI M100-S18 method; type: functional
[3] = test system: Listeria monocytogenes; experiment: Antibacterial activity against Listeria monocytogenes by CLSI M100-S18 method; type: functional
[4] = test system: Staphylococcus aureus; experiment: Antibacterial activity against ciprofloxacin-susceptible and methicillin-resistant Staphylococcus aureus by CLSI M100-S18 method; type: functional
[5] = test system: Staphylococcus aureus; experiment: Antibacterial activity against non-ciprofloxacin-susceptible and methicillin-susceptible Staphylococcus aureus by CLSI M100-S18 method; type: functional
[6] = test system: Staphylococcus epidermidis; experiment: Antibacterial activity against ciprofloxacin-susceptible and methicillin-resistant Staphylococcus epidermidis by CLSI M100-S18 method; type: functional
[7] = test system: Staphylococcus lugdunensis; experiment: Antibacterial activity against Staphylococcus lugdunensis by CLSI M100-S18 method; type: functional
[8] = test system: Staphylococcus warneri; experiment: Antibacterial activity against Staphylococcus warneri by CLSI M100-S18 method; type: functional
[9] = test system: Streptococcus agalactiae; experiment: Antibacterial activity against Streptococcus agalactiae by CLSI M100-S18 method; type: functional
[10] = test system: Streptococcus sp.; experiment: Antibacterial activity against Lancefield Streptococcus sp. group F by CLSI M100-S18 method; type: functional
[11] = Antibacterial activity against Lancefield Streptococcus sp. 'group G' by CLSI M100-S18 method; type: functional
[12] = test system: Streptococcus pneumoniae; experiment: Antibacterial activity against levofloxacin-susceptible Streptococcus pneumoniae by CLSI M100-S18 method; type: functional
[13] = test system: Streptococcus pneumoniae; experiment: Antibacterial activity against non-levofloxacin susceptible Streptococcus pneumoniae by CLSI M100-S18 method; type: functional
[14] = test system: Streptococcus pyogenes; experiment: Antibacterial activity against Streptococcus pyogenes by CLSI M100-S18 method; type: functional
[15] = test system: Streptococcus anginosus; experiment: Antibacterial activity against Streptococcus anginosus by CLSI M100-S18 method; type: functional
[16] = test system: Streptococcus constellatus; experiment: Antibacterial activity against Streptococcus constellatus by CLSI M100-S18 method; type: functional
[17] = test system: Streptococcus intermedius; experiment: Antibacterial activity against Streptococcus intermedius by CLSI M100-S18 method; type: functional
[18] = test system: Streptococcus mitis; experiment: Antibacterial activity against Streptococcus mitis by CLSI M100-S18 method; type: functional
[19] = test system: Streptococcus salivarius; experiment: Antibacterial activity against Streptococcus salivarius by CLSI M100-S18 method; type: functional
[20] = test system: Acinetobacter calcoaceticus; experiment: Antibacterial activity against Acinetobacter calcoaceticus by CLSI M7-A7 method; type: functional
[21] = test system: Citrobacter freundii; experiment: Antibacterial activity against Citrobacter freundii by CLSI M7-A7 method; type: functional
[22] = test system: Citrobacter koseri; experiment: Antibacterial activity against Citrobacter koseri by CLSI M7-A7 method; type: functional
[23] = test system: Klebsiella aerogenes; experiment: Antibacterial activity against Enterobacter aerogenes by CLSI M7-A7 method; type: functional
[24] = test system: Haemophilus influenzae; experiment: Antibacterial activity against ciprofloxacin-susceptible Haemophilus influenzae by CLSI M7-A7 method; type: functional
[25] = test system: Haemophilus influenzae; experiment: Antibacterial activity against non-ciprofloxacin-susceptible Haemophilus influenzae by CLSI M7-A7 method; type: functional
[26] = test system: Klebsiella oxytoca; experiment: Antibacterial activity against Klebsiella oxytoca by CLSI M7-A7 method; type: functional
[27] = test system: Klebsiella pneumoniae; experiment: Antibacterial activity against Klebsiella pneumoniae by CLSI M7-A7 method; type: functional
[28] = test system: Legionella pneumophila; experiment: Antibacterial activity against Legionella pneumophila by CLSI M7-A7 method; type: functional
[29] = test system: Moraxella catarrhalis; experiment: Antibacterial activity against Moraxella catarrhalis by CLSI M7-A7 method; type: functional
[30] = test system: Proteus mirabilis; experiment: Antibacterial activity against Proteus mirabilis by CLSI M7-A7 method; type: functional
[31] = test system: Pseudomonas aeruginosa; experiment: Antibacterial activity against ciprofloxacin-susceptible Pseudomonas aeruginosa by CLSI M7-A7 method; type: functional
[32] = test system: Pseudomonas aeruginosa; experiment: Antibacterial activity against non-ciprofloxacin-susceptible Pseudomonas aeruginosa by CLSI M7-A7 method; type: functional
[33] = test system: Stenotrophomonas maltophilia; experiment: Antibacterial activity against non-levofloxacin susceptible Stenotrophomonas maltophilia by CLSI M7-A7 method; type: functional
[34] = test system: Staphylococcus epidermidis; experiment: Antibacterial activity against ciprofloxacin-susceptible and methicillin-resistant Staphylococcus epidermidis assessed as percent susceptible isolates by CLSI M100-S18 method; type: functional
[35] = test system: Staphylococcus haemolyticus; experiment: Antibacterial activity against Staphylococcus haemolyticus assessed as percent susceptible isolates by CLSI M100-S18 method; type: functional
[36] = test system: Staphylococcus hominis; experiment: Antibacterial activity against Staphylococcus hominis assessed as percent susceptible isolates by CLSI M100-S18 method; type: functional
[37] = test system: Staphylococcus saprophyticus; experiment: Antibacterial activity against Staphylococcus saprophyticus assessed as percent susceptible isolates by CLSI M100-S18 method; type: functional
[38] = test system: Streptococcus pneumoniae; experiment: Antibacterial activity against non-levofloxacin susceptible Streptococcus pneumoniae assessed as percent susceptible isolates by CLSI M100-S18 method; type: functional
[39] = test system: Citrobacter freundii; experiment: Antibacterial activity against Citrobacter freundii assessed as percent susceptible isolates by CLSI M7-A7 method; type: functional
[40] = test system: Klebsiella aerogenes; experiment: Antibacterial activity against Enterobacter aerogenes assessed as percent susceptible isolates by CLSI M7-A7 method; type: functional
[41] = test system: Enterobacter cloacae; experiment: Antibacterial activity against Enterobacter cloacae assessed as percent susceptible isolates by CLSI M7-A7 method; type: functional
[42] = test system: Haemophilus influenzae; experiment: Antibacterial activity against ciprofloxacin-susceptible Haemophilus influenzae assessed as percent susceptible isolates by CLSI M7-A7 method; type: functional
[43] = test system: Haemophilus influenzae; experiment: Antibacterial activity against non-ciprofloxacin-susceptible Haemophilus influenzae assessed as percent susceptible isolates by CLSI M7-A7 method; type: functional
[44] = test system: Proteus mirabilis; experiment: Antibacterial activity against Proteus mirabilis assessed as percent susceptible isolates by CLSI M7-A7 method; type: functional
[45] = test system: Stenotrophomonas maltophilia; experiment: Antibacterial activity against levofloxacin-susceptible Stenotrophomonas maltophilia by CLSI M7-A7 method; type: functional
[46] = test system: Staphylococcus epidermidis
[47] = test system: Staphylococcus epidermidis; remark: listed apart in the source

With C[C@H]1COc2c(N3CCN(C)CC3)c(F)cc3c(=O)c(C(=O)O)cn1c23.C[C@H]1COc2c(N3CCN(C)CC3)c(F)cc3c(=O)c(C(=O)O)cn1c23.O [LEVOFLOXACIN] the MIC50 [1] was 1 µg/mL, the MIC90 [1] was 64 µg/mL and the MIC50 [2] was 32 µg/mL. The MIC90 [2] was 128 µg/mL, the MIC50 [3] was 0.5 µg/mL and the MIC90 [3] was 1 µg/mL. For the same compound, the MIC50 [4] was 0.12 µg/mL, the MIC90 [4] was 0.25 µg/mL and the MIC50 [5] was over 8 µg/mL. It also gave an MIC90 [5] of over 8 µg/mL, an MIC [6] of 0.12 µg/mL and an MIC50 [6] of 0.12 µg/mL. The MIC50 [7] was 0.25 µg/mL, the MIC90 [7] was over 8 µg/mL and the MIC50 [8] was 0.12 µg/mL. The MIC90 [8] was over 8 µg/mL, the MIC [9] was 0.5 µg/mL and the MIC50 [9] was 0.5 µg/mL. For the same compound, the MIC90 [9] was 0.5 µg/mL, the MIC50 [10] was 0.5 µg/mL and the MIC90 [10] was 0.5 µg/mL. The MIC50 [11] was 0.5 µg/mL, the MIC90 [11] was 0.5 µg/mL and the MIC50 [12] was 0.5 µg/mL. The MIC90 [12] was 0.5 µg/mL, the MIC50 [13] was 16 µg/mL and the MIC90 [13] was 16 µg/mL. It also gave an MIC50 [14] of 0.5 µg/mL, an MIC90 [14] of 0.5 µg/mL and an MIC50 [15] of 1 µg/mL. The MIC90 [15] was 1 µg/mL, the MIC50 [16] was 1 µg/mL and the MIC90 [16] was 4 µg/mL. The MIC50 [17] was 1 µg/mL, the MIC90 [17] was 4 µg/mL and the MIC50 [18] was 1 µg/mL. The MIC90 [18] was 4 µg/mL, the MIC50 [19] was 1 µg/mL and the MIC90 [19] was 4 µg/mL. The MIC50 [20] was 0.5 µg/mL, the MIC90 [20] was 8 µg/mL and the MIC50 [21] was 0.06 µg/mL. The MIC90 [21] was 2 µg/mL, the MIC50 [22] was 0.03 µg/mL and the MIC90 [22] was 0.12 µg/mL. The MIC50 [23] was 0.06 µg/mL, the MIC90 [23] was 16 µg/mL and the MIC50 [24] was 0.015 µg/mL. For the same compound, the MIC90 [24] was 0.015 µg/mL, the MIC50 [25] was 8 µg/mL and the MIC90 [25] was 16 µg/mL. The MIC50 [26] was 0.03 µg/mL, the MIC90 [26] was 0.5 µg/mL and the MIC50 [27] was 0.06 µg/mL. It also gave an MIC90 [27] of 2 µg/mL, an MIC50 [28] of 0.03 µg/mL and an MIC90 [28] of 0.03 µg/mL. For the same compound, the MIC50 [29] was 0.015 µg/mL, the MIC90 [29] was 0.015 µg/mL and the MIC50 [30] was 0.03 µg/mL. The MIC90 [30] was 8 µg/mL, the MIC50 [31] was 0.5 µg/mL and the MIC90 [31] was 1 µg/mL. For the same compound, the MIC50 [32] was 16 µg/mL, the MIC90 [32] was 64 µg/mL and the MIC [33] was 0.12 µg/mL. It also gave an Activity [34] of 100%, an Activity [35] of 37.6% and an Activity [36] of 30%. The Activity [37] was 100%, the Activity [38] was 0% and the Activity [39] was 90%. The Activity [40] was 80%, the Activity [41] was 92% and the Activity [42] was 100%. The Activity [43] was 27.3%, the Activity [44] was 76% and the MIC [45] was 4 µg/mL. The MIC90 [46] was “inactive” and the MIC90 [47] was “inactive”.
